From US20220280422A1 (Innovation for Success, LLC, priority 2021, published 2022)

Key:
[1] = Dissolution of melatonin in liquid glycerin; assay type: physicochemical; settings: at least 250 mg melatonin per milliliter glycerin
Description: At block 304, the method 300 includes combining melatonin with liquid glycerin, which is also termed glycerol and/or glycerine. The melatonin may be dry and/or powered, and is typically in a crystalized state. As noted above, in an exemplary embodiment, at least 250 mg of melatonin is added per milliliter of glycerin.
Next, at block 308 of the method 300, the melatonin and glycerin mixture is heated to approximately 76.6° C. (170° F.). Moreover, in some embodiments, the melatonin and glycerin mixture is stirred during the heating process.
As shown in block 404, first the method 400 includes mixing melatonin with liquid glycerin. The melatonin may be dry and/or powered, and is typically in a crystalized state. As noted above, in an exemplary embodiment, at least 250 mg of melatonin is added per milliliter of glycerin.
Next, at block 408 of the method 400, the melatonin and glycerin mixture is heated to approximately 76.6° C. (170° F.). Moreover, in some embodiments, the melatonin and glycerin mixture is stirred during the heating process.

[2] = Recrystallization of melatonin on cooling in food-grade solvents; assay type: physicochemical; settings: dissolved by heating then cooled
Source text: During research of the dissolvable strip 100, several food-grade solvents were identified having a sufficient solubility of melatonin including glycerin, ethanol, oleic acid, and propylene glycol. When heated, each of these solvents is capable of dissolving crystalized melatonin. […] Whereas, as noted above, glycerin incorporates well into the strip 100 at levels up to about 2% to 5%, is compatible with the lipid shell 124, and prevents recrystallization of the melatonin contained by the lipid shell 124.

[3] = cited from earlier work
CYP1A2 = target: T1, CYP1A2 (Homo sapiens, UniProt P05177); settings: in vivo; cited from earlier work
T1 sequence (P05177 1-516): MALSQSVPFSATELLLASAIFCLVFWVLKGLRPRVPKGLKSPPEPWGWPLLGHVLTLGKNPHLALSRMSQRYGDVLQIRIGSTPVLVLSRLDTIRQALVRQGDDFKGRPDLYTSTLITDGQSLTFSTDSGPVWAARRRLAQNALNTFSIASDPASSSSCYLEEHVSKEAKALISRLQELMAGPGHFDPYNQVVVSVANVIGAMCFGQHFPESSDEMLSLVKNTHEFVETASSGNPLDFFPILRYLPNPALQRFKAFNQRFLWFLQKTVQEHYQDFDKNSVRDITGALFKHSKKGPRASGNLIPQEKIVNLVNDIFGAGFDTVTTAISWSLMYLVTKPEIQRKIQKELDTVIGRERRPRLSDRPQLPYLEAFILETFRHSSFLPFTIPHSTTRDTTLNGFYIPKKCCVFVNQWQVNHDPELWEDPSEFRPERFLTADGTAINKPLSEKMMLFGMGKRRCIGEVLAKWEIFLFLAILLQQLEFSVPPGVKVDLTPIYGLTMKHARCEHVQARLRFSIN

[4] = taken orally in pill form or capsule form; cited from earlier work

dissolution of melatonin in glycerin ([1]; heated to approximately 76.6° C. and stirred)	recrystallization of melatonin when cooled ([2]; solvent ethanol)	recrystallization of melatonin when cooled ([2]; solvent oleic acid)	recrystallization of melatonin when cooled ([2]; solvent propylene glycol)	Structure (SMILES)	dissolution of melatonin in glycerin ([1]; room temperature (25° C.))	recrystallization of melatonin when cooled ([2]; solvent liquid glycerin)	solubility in water [3]	melatonin in the blood removed during each pass through the liver (CYP1A2)	melatonin removed from the bloodstream by liver and kidneys (CYP1A2)	fraction absorbed into the body [4]
all of the melatonin dissolves	recrystallized	recrystallized	recrystallized	COc1ccc2[nH]cc(CCNC(C)=O)c2c1 [melatonin, N-acetyl-5-methoxy tryptamine]	only a portion of the melatonin dissolves	recrystallized in each of the solvents except for the liquid glycerin	only slightly soluble in water	30%-50%	30-50%	
				COc1ccc2[nH]cc(CCNC(C)=O)c2c1 [non-solubilized melatonin]						about 15%
